Measured values taken from ChEMBL document CHEMBL3507680, “University of Dundee, Gates Library screen for HepG2 cell viability”.

assay: Human HepG2 cell viability assay in 384 well format; type: toxicity, cell-based; parameters: dose 125 nL, time 70.5 hour; cytotoxicity at 70.5 h: concentration not given beside the values; details: HepG2 cells, read-out: Inhibition

First: NS(=O)(=O)CC1CCN(c2ncccc2C(F)(F)F)CC1
Second: CNS(=O)(=O)CC1CCCN1c1ccc(Cl)cn1 (stereo not given)
The cytotoxicity at 70.5 h of the first is higher: 7.95% for the first, -1.45% for the second.

Going from `Cn1ccc(CN2CCC(NC(=O)C3CCCCC3)CC2)cc1=O` to `CC(NC1CCN(C(=O)C2CCCCC2)CC1)c1nccs1` (stereo not given), the cytotoxicity at 70.5 h falls from -3.14% to -6.15%.

Going from `O=C(NCC1CCOC1)c1cc(-c2ccccc2Cl)[nH]n1` (stereo not given) to `O=C(CCN1CCOC(C(F)(F)F)C1)NCc1ccccc1Cl` (stereo not given), the cytotoxicity at 70.5 h rises from -12.9% to 15.4%.

Compared with `O=C(c1cc(F)cc(F)c1)N1CCC(O)(C(F)(F)F)CC1`, `COc1ncc(C(=O)N2CCC3(CC2)C(=O)Nc2ccccc23)cn1` is lower in cytotoxicity at 70.5 h: 19.9% for the first, 0.417% for the second.

Going from `COCCN1CCc2nc(SCc3ccc(F)cc3)[nH]c(=O)c2C1` to `Cn1c2ccc(F)cc2c2ncn(CCN3CCOCC3)c(=O)c21`, the cytotoxicity at 70.5 h falls from 28.7% to 17.4%.

First: O=C(NCc1csc(Br)c1)Nc1cn[nH]c1
Second: CCC(=O)Nc1ccc(C(C)NC(=O)COCCOC)cc1 (stereo not given)
The cytotoxicity at 70.5 h of the first is higher: 39.3% for the first, 3.18% for the second.

First: Cc1ccc([C@H]2CN(C(=O)C3CCC3)C[C@@H]2N)o1
Second: COc1ccccc1OC1CCN(C(=O)C2CCCN(C)C2)CC1 (stereo not given)
The cytotoxicity at 70.5 h of the first is higher: -1.49% for the first, -8.14% for the second.

First: Cc1ncnc2c1CCN(C(=O)Cc1cccc(F)c1)CC2
Second: CN(C)Cc1nc2c(o1)CN(C(=O)NCc1cccc(F)c1)C2
The cytotoxicity at 70.5 h of the first is higher: 0.979% for the first, -5.42% for the second.

Compared with `COCCCN(CCOC)C(=O)Nc1ccc(C)cc1C`, `CCS(=O)(=O)c1ncc(CN(C)Cc2ccc(C)o2)n1CCOC` is higher in cytotoxicity at 70.5 h: 0.857% for the first, 17.1% for the second.

First: COc1ccc(F)cc1CN1CCN(Cc2nccn2C)C(C)C1 (stereo not given)
Second: CC(C(=O)NCc1ccco1)N1CCN(Cc2nccn2C)CC1 (stereo not given)
The cytotoxicity at 70.5 h of the first is higher: 9.37% for the first, -5.54% for the second.

Going from `CCCc1nnc(NCCc2noc(C3CCCC3)n2)o1` to `CCc1noc(C2CCCCN2C(=O)c2nnc3ccccc3n2)n1` (stereo not given), the cytotoxicity at 70.5 h rises from 9.03% to 17.3%.

Compared with `Cc1cnc(C(=O)N2C[C@@H](NS(C)(=O)=O)[C@@H]3OCCC[C@@H]32)cn1`, `c1cnn([C@@H]2CN(Cc3nccs3)[C@@H]3CCCO[C@@H]32)c1` is higher in cytotoxicity at 70.5 h: -13.4% for the first, -6.1% for the second.

Compared with `CN1CCCN(C(=O)c2cc3c(s2)CCN3C(=O)C2CC2)CC1`, `Cc1nc(C(=O)N2CCOCC2)cc(N2CCC(C(N)=O)CC2)n1` is higher in cytotoxicity at 70.5 h: -3.39% for the first, -0.347% for the second.

Compared with `C[S+]([O-])CCNC(=O)N1CCN(c2cc(F)ccc2F)CC1` (stereo not given), `COc1cc(C)nc(N2CCN(C(=O)CCn3cc(C)cn3)CC2)n1` is lower in cytotoxicity at 70.5 h: 13% for the first, -0.584% for the second.

Compared with `CC(=O)NCCCc1ncnn1-c1cccc(Cl)c1`, `CCOc1ccc(Cl)c(C(=O)NCCc2ncc[nH]2)n1` is lower in cytotoxicity at 70.5 h: 1.57% for the first, -3.13% for the second.

Compared with `Nc1ncncc1-c1noc([C@@H]2CCCN2CC2CC2)n1`, `CC(C)c1nc2n(n1)CC(NCc1nc(-c3cccnc3)no1)CC2` (stereo not given) is higher in cytotoxicity at 70.5 h: 9.61% for the first, 21.9% for the second.

First: CC(C)Cc1nc(CNCc2cccc(N3CCCC3=O)c2)no1
Second: CC1CN(c2cc(CNCc3cccc4c3OCCO4)ccn2)CCO1 (stereo not given)
The cytotoxicity at 70.5 h of the first is lower: -20.4% for the first, -10.3% for the second.

Compared with `Cc1cnn(C2CN(Cc3nc4cc(Cl)ccc4n3C)C2)c1`, `Cn1nccc1C(=O)N1CCOC(Cc2ccc(Cl)cc2)C1` (stereo not given) is lower in cytotoxicity at 70.5 h: 7.22% for the first, 0.563% for the second.

Going from `Cc1csc([C@@H]2C[C@@H]3CCN(C(=O)c4cccn4C)C[C@H]3O2)n1` to `CC(=O)Nc1nc(CN2CCOC(Cn3cccn3)C2)cs1` (stereo not given), the cytotoxicity at 70.5 h falls from 9.1% to -5.08%.

First: CCc1ocnc1C(=O)N1CCC2(CCCN(CC(C)(C)C)C2=O)C1 (stereo not given)
Second: COc1cc(N2CCC3(CCN(Cc4csc(C)n4)C3=O)C2)ncn1 (stereo not given)
The cytotoxicity at 70.5 h of the first is higher: -6.31% for the first, -7.86% for the second.

Going from `CN1CCCC1c1nnc2n1CCN(S(=O)(=O)c1ccccc1Cl)CC2` (stereo not given) to `O=S(=O)(c1cnccc1N1CCN(CCO)CC1)N1CCCCC1`, the cytotoxicity at 70.5 h rises from -8.1% to 27.8%.

First: CN(C)C(=O)[C@@H]1CCO[C@@H]2CCN(c3ncccn3)C[C@@H]21
Second: CN1CC2(COCCN(c3ncccn3)C2)OCC1=O (stereo not given)
The cytotoxicity at 70.5 h of the first is higher: -2.08% for the first, -11.5% for the second.

First: c1ccc(Cc2nc(CNC3CCC4(CCNCC4)CC3)no2)cc1
Second: COc1ccccc1-c1ncc(CN2CCC3(CCN(C)C3)CC2)cn1
The cytotoxicity at 70.5 h of the first is higher: -4.21% for the first, -8.29% for the second.

Going from `CC(=O)N1CCN(c2cc(N3CCOCC3)cnn2)CC1` to `O=S(=O)(c1cnccc1N1CCN(CCO)CC1)N1CCOCC1`, the cytotoxicity at 70.5 h rises from 6.14% to 11.8%.

Compared with `CC(=O)NCC(=O)N1CCn2cc(CN3CCCCC3)nc2C1`, `Cc1cc(Br)ccc1C(=O)NCCN1CCCCCC1` is lower in cytotoxicity at 70.5 h: -1.68% for the first, -10.6% for the second.

First: O=C1CCCN1CCN1CC=C(c2cnn(C3CCS(=O)(=O)C3)c2)CC1 (stereo not given)
Second: COCCN1CCCC(c2ncc(C(=O)N3CCOCC3)c(C)n2)C1 (stereo not given)
The cytotoxicity at 70.5 h of the first is lower: -10.3% for the first, 1.77% for the second.

Going from `COCCn1c2c(ccc1=O)CCN(C(=O)Cc1cccs1)CC2` to `CN(C)Cc1nn(C)c2c1CCN(S(=O)(=O)c1cccs1)C2`, the cytotoxicity at 70.5 h rises from -5.4% to 1.38%.

Compared with `CC[C@@]1(O)CCN(CCCOc2ccc(C(N)=O)cc2)C[C@H]1O`, `CCOc1ccc2nc(CN3CCC(CNC(C)=O)C3)ccc2c1` (stereo not given) is higher in cytotoxicity at 70.5 h: -4.97% for the first, 1.6% for the second.

Going from `CCCNC(=O)C(C)NC(=O)CCc1ccccc1Br` (stereo not given) to `CC(C)(O)CN1CC(C)(C)CN(C(=O)CCc2ccccc2)CC1=O`, the cytotoxicity at 70.5 h rises from -6.3% to -1.35%.

First: O=S(=O)(C1CC1)N1CCO[C@H]2[C@H](OCCN3CCCC3)CC[C@@H]21
Second: Cc1cc(CN2CCC(C3CCN(CC(C)C)CC3)C2)[nH]n1 (stereo not given)
The cytotoxicity at 70.5 h of the first is higher: 23.9% for the first, -3.48% for the second.

Compared with `CC(C)n1c(C(=O)N2CCCC2)nc2c1CCN(c1ncccn1)C2`, `Cc1nn(C)cc1C(=O)N1CCCN(C2Cc3ccccc3C2)CC1` is higher in cytotoxicity at 70.5 h: 0.473% for the first, 14.3% for the second.

Compared with `O=C(Nc1cccc(OCc2ccc(F)cc2)c1)C1COCCO1` (stereo not given), `O=S(=O)(c1ccc(F)cc1)N1CCCC1c1cc[nH]n1` (stereo not given) is lower in cytotoxicity at 70.5 h: -4.75% for the first, -7.22% for the second.

First: COc1ccc2c(c1)C(=O)N(C)C1(CCN(CC3CC3)CC1)N2
Second: CCOC(=O)N1CCN(C(=O)C2Cc3ccccc3CN2C)CC1 (stereo not given)
The cytotoxicity at 70.5 h of the first is higher: 3.49% for the first, 2.75% for the second.

Compared with `CC(c1ccc(Cl)cc1)N1CCN(CCNS(C)(=O)=O)CC1` (stereo not given), `CCCc1noc(C(C)N2CCN(Cc3nc(C)c(C)o3)CC2)n1` (stereo not given) is higher in cytotoxicity at 70.5 h: -0.037% for the first, 0.969% for the second.

Compared with `CCC(CO)NCc1ccc(-c2ccc(F)c(Cl)c2)o1` (stereo not given), `CN(C)Cc1ccccc1NC(=O)c1ccc(C#N)cc1` is lower in cytotoxicity at 70.5 h: 3.9% for the first, -7.54% for the second.

First: CCn1nc(C)c(CCNC(=O)C2CCCN(C(C)=O)C2)c1C (stereo not given)
Second: CC(=O)N1CCC2(CC1)CC[C@@]1(C(=O)N(C)C)CN(S(C)(=O)=O)C[C@@H]21
The cytotoxicity at 70.5 h of the first is lower: -8.81% for the first, 27.7% for the second.

Compared with `CC1=C[C@@H](CN2CCOCC2)[C@H](C(C)C)C[C@H]1Cc1nnc(C)o1`, `Cn1cnc2c(-c3cccnc3)nc(C3CCN(S(C)(=O)=O)CC3)cc21` is lower in cytotoxicity at 70.5 h: -5.39% for the first, -8.84% for the second.

Going from `c1cnnc(N[C@@H]2CC[C@@H]3CN(Cc4ccc5cc[nH]c5c4)C[C@@H]32)c1` to `COC1CCN(C(=O)c2ccccc2NCc2cccnc2)CC1`, the cytotoxicity at 70.5 h rises from -9.52% to -2.63%.

Compared with `Cc1ccc(C(=O)N(C)Cc2nccn2CC(F)(F)F)cn1`, `Cn1ccnc1C1CCN(C(=O)COCC(F)(F)C(F)F)CC1` is lower in cytotoxicity at 70.5 h: -13.5% for the first, -14.1% for the second.

First: NC(=O)C(NC(=O)COC1CCCC1)c1ccccc1 (stereo not given)
Second: CC(C)CCN1C[C@H]2C[C@H](C(=O)NCc3ccccc3)[C@@H](C1)O2
The cytotoxicity at 70.5 h of the first is lower: -6.85% for the first, 5.49% for the second.
